Reference: PubChem BioAssay AID1919002 (Molecular Pharmacology Branch, DTP, NCI, 2023)
“And” between values parts separate entries of the source, which are not always exact repeats. Equal entries are not always repeated.

System: 743489-274-T-PDC complex spheroid growth
Assay: Anticancer human tumor 743489-274-T-PDC patient-derived renal cell carcinoma cell line growth inhibition [AhR]
Conditions: for viability, T/C: stronger effect = lower value
Source text: Multicellular complex tumor spheroid response to aryl hydrocarbon receptor antagonists in combination with a variety of drugs and investigational agents in selected tumor cell lines
The current study was undertaken to assess response to aryl hydrocarbon receptor antagonists in combination with standard-of-care drugs and investigational agents in solid tumor complex spheroid models. Complex spheroids include a stromal component modeled by human endothelial cells (HUVEC) and fibroblasts modeled by human mesenchymal stem cells (MSCs). The concentration ranges selected for each drug and investigational agent were based upon clinically achievable concentrations if the clinical Cmax of the agent was known.
Compounds. The drugs and investigational agents: BAY 2416964 (NSC825713), GNF351 (NSC835774), CH-223191 (NSC835775), CPI-455 (NSC825282), aza-TdCyd (NSC777586), decitabine (NSC127716), belinostat (NSC758774), entinostat (NSC756642), pevonedistat (NSC761192), tazemetostat (NSC777109), talazoparib (NSC765396), olaparib (NSC753686), selinexor (NSC780203), nedisertib (M3814, NSC802822), bortezomib (NSC756655), venetoclax (NSC766270), doxorubicin (NSC123127), elimusertib (BAY189344, NSC800525), ceralasertib (AZD6738, NSC777638), TAK-243 (NSC785004), alisertib (NSC759677), etoposide (NSC141540), topotecan (NSC609699), eribulin (NSC707389), gemcitabine (NSC613327), carboplatin (NSC241240), cisplatin (NSC119875), and SN-38 (NSC673596) were obtained from the National Cancer Institute (NCI) Developmental Therapeutics Program Chemical Repository (32). The FDA-approved anticancer drug set is available from the Developmental Therapeutics Program at https://dtp.cancer.gov/organization/dscb/obtaining/available plates.htm. […] The stock solutions were prepared in dimethyl sulfoxide (DMSO, Sigma-Aldrich, St. Louis, MO, cat. D2650), except for the platinum compounds which were prepared in saline (Quality Biological, Gaithersburg, MD, cat. 114-055-101), at 800-fold the tested concentration and stored at -70 degrees C prior to their use. All drugs and investigational agents were tested over a range starting from a high concentration at or near the clinical Cmax and decreasing in half-log increments. If the clinical Cmax for an agent had not been determined, the highest concentration tested was 10 microM (Table 1).
Cell Culture. All cells were maintained in an incubator at 37 degrees C and 5% CO2 with 95% humidity. The PDC lines were cultured according to standard operating procedures established by the NCI PDMR (https://pdmr.cancer.gov). Briefly, all PDCs were thawed and cultured in Matrigel-coated flasks prepared with a working solution of 1X Ham's F-12 nutrient mix, without supplementation (Invitrogen, Waltham, MA, cat. 11765054), 100 U/mL penicillin-streptomycin (Invitrogen, cat. 15140122), and 2.5% Matrigel (Corning Inc., Corning, NY, cat. 354248) for the first three passages. All PDCs were cultured in complete DMEM/F-12 media containing advanced DMEM/F-12 (Invitrogen, cat. 12634028), 4.9% defined fetal bovine serum, heat inactivated (HyClone Laboratories Inc., Logan, UT, cat. SH30070.03HI), 389 ng/mL hydrocortisone (Sigma-Aldrich, cat. H4001), 9.7 ng/mL human EGF recombinant protein (Invitrogen, cat. PHG0313), 23.4 microg/mL adenine (Sigma-Aldrich, cat. A2786), 97.3 U/mL penicillin-streptomycin (Invitrogen, cat. 15140122), 1.9 mM L-glutamine (Invitrogen, cat. 25030081), and 9.7 microM Y-27632 dihydrochloride (Tocris Bioscience, Bristol, United Kingdom, cat. 1254). The PDCs were cultured in complete DMEM/F12 media without 10 microM Y-27632 dihydrochloride for at least two passages prior to the screen. The established cell lines NCI-H1341 and […] were cultured in DMEM/F-12, HEPES (Invitrogen, cat. 11330032), 5% defined fetal bovine serum (HyClone Laboratories Inc., cat. SH30070.03), ITS premix universal culture supplement [insulin (5 microg/mL), transferrin (5 microg/mL), and selenious acid (5 ng/mL)] […]

[1] = curve of first compound, second compound 0.1 µM
[2] = curve of first compound, second compound 0.316 µM
[3] = curve of first compound, second compound 1 µM
[4] = curve of first compound, second compound 3.16 µM
[5] = curve of first compound, second compound 10 µM
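Further: spheroids exposed to agents for 7 days before readout.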
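Wherever viability, T/C is given: 100% = DMSO vehicle control wells.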

Q: What does the source list for `CCN(c1cc(-c2ccc(CN3CCOCC3)cc2)cc(C(=O)NCc2c(C)cc(C)[nH]c2=O)c1C)C1CCOCC1` + CC(CO)NC(=O)c1cc(-c2ccc(Cl)cc2)nn(-c2cnn(C)c2)c1=O?
A: IC50 [1]: > 3 µM; IC50 [2]: > 3 µM; IC50 [3]: > 3 µM; IC50 [4]: > 3 µM; IC50 [5]: > 3 µM; viability, T/C (second compound 0.1 µM, first compound 0.00949 µM): 103%; viability, T/C (second compound 0.1 µM, first compound 0.03 µM): 103%; viability, T/C (second compound 0.1 µM, first compound 0.0949 µM): 99.6%; viability, T/C (second compound 0.1 µM, first compound 0.3 µM): 93.5%; viability, T/C (second compound 0.1 µM, first compound 0.949 µM): 93.8%; viability, T/C (second compound 0.1 µM, first compound 3 µM): 112%; viability, T/C (second compound 0.316 µM, first compound 0.00949 µM): 97.6%; viability, T/C (second compound 0.316 µM, first compound 0.03 µM): 96.5%; viability, T/C (second compound 0.316 µM, first compound 0.0949 µM): 103%; viability, T/C (second compound 0.316 µM, first compound 0.3 µM): 102%; viability, T/C (second compound 0.316 µM, first compound 0.949 µM): 90.5%; viability, T/C (second compound 0.316 µM, first compound 3 µM): 92.6%; viability, T/C (second compound 1 µM, first compound 0.00949 µM): 104%; viability, T/C (second compound 1 µM, first compound 0.03 µM): 102%; viability, T/C (second compound 1 µM, first compound 0.0949 µM): 107%; viability, T/C (second compound 1 µM, first compound 0.3 µM): 92.4%; viability, T/C (second compound 1 µM, first compound 0.949 µM): 94%; viability, T/C (second compound 1 µM, first compound 3 µM): 106%; viability, T/C (second compound 3.16 µM, first compound 0.00949 µM): 84.4%; viability, T/C (second compound 3.16 µM, first compound 0.03 µM): 92.3%; viability, T/C (second compound 3.16 µM, first compound 0.0949 µM): 103%; viability, T/C (second compound 3.16 µM, first compound 0.3 µM): 82.6%; viability, T/C (second compound 3.16 µM, first compound 0.949 µM): 92.7%; viability, T/C (second compound 3.16 µM, first compound 3 µM): 98.8%; viability, T/C (second compound 10 µM, first compound 0.00949 µM): 105%; viability, T/C (second compound 10 µM, first compound 0.03 µM): 106%; viability, T/C (second compound 10 µM, first compound 0.0949 µM): 91.7%; viability, T/C (second compound 10 µM, first compound 0.3 µM): 104%; viability, T/C (second compound 10 µM, first compound 0.949 µM): 101%; viability, T/C (second compound 10 µM, first compound 3 µM): 91.1%

Q: Which IC50 [1] does the source give for `COc1cccc2c1C(=O)c1c(O)c3c(c(O)c1C2=O)CC(O)(C(=O)CO)CC3OC1CC(N)C(O)C(C)O1` (configuration not stated) + Cc1cncc(-c2nc(NCCc3c[nH]c4ccccc34)c3ncn(C(C)C)c3n2)c1 here?
A: > 10 µM

Q: And the IC50 [2]?
A: 5.54 µM

Q: And the IC50 [3]?
A: 2.47 µM

Q: What about the IC50 [4] of the same molecule?
A: 1.35 µM

Q: What about the IC50 [5] of the same molecule?
A: 0.825 µM

Q: And the viability, T/C (second compound 0.1 µM, first compound 0.0316 µM)?
A: 92.1%

Q: What about the viability, T/C (second compound 0.1 µM, first compound 0.1 µM) of the same molecule?
A: 92.6%

Q: What about the viability, T/C (second compound 0.1 µM, first compound 0.316 µM) of the same molecule?
A: 90.2%

Q: What about the viability, T/C (second compound 0.1 µM, first compound 1 µM) of the same molecule?
A: 80.4%

Q: And the viability, T/C (second compound 0.1 µM, first compound 3.16 µM)?
A: 96.5%

Q: And the viability, T/C (second compound 0.1 µM, first compound 10 µM)?
A: 50.4%

Q: What about the viability, T/C (second compound 0.316 µM, first compound 0.0316 µM) of the same molecule?
A: 89.7%

Q: And the viability, T/C (second compound 0.316 µM, first compound 0.1 µM)?
A: 92.5%

Q: And the viability, T/C (second compound 0.316 µM, first compound 0.316 µM)?
A: 88.3%

Q: And the viability, T/C (second compound 0.316 µM, first compound 1 µM)?
A: 84.8%

Q: And the viability, T/C (second compound 0.316 µM, first compound 3.16 µM)?
A: 70.6%

Q: What about the viability, T/C (second compound 0.316 µM, first compound 10 µM) of the same molecule?
A: 28.4%

Q: And the viability, T/C (second compound 1 µM, first compound 0.0316 µM)?
A: 89.6%

Q: What about the viability, T/C (second compound 1 µM, first compound 0.1 µM) of the same molecule?
A: 97%

Q: What about the viability, T/C (second compound 1 µM, first compound 0.316 µM) of the same molecule?
A: 92.2%

Q: What about the viability, T/C (second compound 1 µM, first compound 1 µM) of the same molecule?
A: 89.6%

Q: And the viability, T/C (second compound 1 µM, first compound 3.16 µM)?
A: 39.2%

Q: What about the viability, T/C (second compound 1 µM, first compound 10 µM) of the same molecule?
A: 0.75%

Q: What about the viability, T/C (second compound 3.16 µM, first compound 0.0316 µM) of the same molecule?
A: 91.3%

Q: And the viability, T/C (second compound 3.16 µM, first compound 0.1 µM)?
A: 91.6%

Q: What about the viability, T/C (second compound 3.16 µM, first compound 0.316 µM) of the same molecule?
A: 93.6%

Q: What about the viability, T/C (second compound 3.16 µM, first compound 1 µM) of the same molecule?
A: 67.6%

Q: What about the viability, T/C (second compound 3.16 µM, first compound 3.16 µM) of the same molecule?
A: 0.25%

Q: And the viability, T/C (second compound 3.16 µM, first compound 10 µM)?
A: 0.22%

Q: What about the viability, T/C (second compound 10 µM, first compound 0.0316 µM) of the same molecule?
A: 111%

Q: What about the viability, T/C (second compound 10 µM, first compound 0.1 µM) of the same molecule?
A: 96%

Q: What about the viability, T/C (second compound 10 µM, first compound 0.316 µM) of the same molecule?
A: 93.6%

Q: What about the viability, T/C (second compound 10 µM, first compound 1 µM) of the same molecule?
A: 42%

Q: And the viability, T/C (second compound 10 µM, first compound 3.16 µM)?
A: 0.4%

Q: What about the viability, T/C (second compound 10 µM, first compound 10 µM) of the same molecule?
A: 0.25%

Q: `O=C(C=Cn1cnc(-c2cc(C(F)(F)F)cc(C(F)(F)F)c2)n1)NNc1cnccn1` was tested. Which viability, T/C (compound 0.00949 µM) did it give?
A: 102% and 119% and 97.2%

Q: What about the viability, T/C (compound 0.03 µM) of the same molecule?
A: 104% and 110% (2×)

Q: What about the viability, T/C (compound 0.0949 µM) of the same molecule?
A: 105% and 119% and 115%

Q: And the viability, T/C (compound 0.3 µM)?
A: 115% and 107% and 129%

Q: And the viability, T/C (compound 0.949 µM)?
A: 114% and 113% and 116%

Q: And the viability, T/C (compound 3 µM)?
A: 93.8% and 94.4% and 92.8%

Q: What about the IC50 (curve of compound) of the same molecule?
A: > 3 µM
